Numbered stars: 1 amine (or outer) side, 2 acyl side, 3 side chain; on linkers, the order of the positions; unused ones are H or OH. Bridge positions count the residues as written; N and C are the ends. Square brackets hold non-standard residues; d marks the D form. Peptide text beside a SMILES is read from it. * marks the point of attachment. hPhe(3,5-F2-4-CF3) = N[C@@H](CCc1cc(F)c(C(F)(F)F)c(F)c1)C(=O)O; hPhe(3-Cl-4-CF3) = N[C@@H](CCc1ccc(C(F)(F)F)c(Cl)c1)C(=O)O; NMePhe(4-CF3) = CN[C@@H](Cc1ccc(C(F)(F)F)cc1)C(=O)O; Thiomorpholino(1,1-dioxo) = O=S1(=O)CCN(*)CC1; 3Oxa8azabicyclo(3.2.1)octane = C1CC2COCC1N2*; NMeAbu(4,4,4-F3) = CN[C@@H](CC(F)(F)F)C(=O)O; NMePhe(4-Me) = CN[C@@H](Cc1ccc(C)cc1)C(=O)O; X109 = O=C([C@H](Cc1cccc(I)c1F)N[*:1])[*:2]; X128 = O=C([C@H](Cc1cccc(F)c1F)N[*:1])[*:2]; X135 = O=C([C@H](Cc1cc(F)ccc1F)N[*:1])[*:2]; NMeGly(cPent) = CN[C@H](C(=O)O)C1CCCC1; Phe(3-I) = N[C@@H](Cc1cccc(I)c1)C(=O)O; Pro(4,4-F2) = O=C(O)[C@@H]1CC(F)(F)CN1; NMeY = CN[C@@H](Cc1ccc(O)cc1)C(=O)O; NMeCha = CN[C@@H](CC1CCCCC1)C(=O)O; Hyp = O=C(O)[C@@H]1C[C@@H](O)CN1; NMeChg = CN[C@H](C(=O)O)C1CCCCC1; NMeI = CC[C@H](C)[C@H](NC)C(=O)O; NMeD = CN[C@@H](CC(=O)O)C(=O)O; NMeL = CN[C@@H](CC(C)C)C(=O)O; Oxazolidin(3-yl) = C1CN(*)CO1; NMeAbu = CC[C@H](NC)C(=O)O; Morpholide = C1CN(*)CCO1; NMeA = CN[C@@H](C)C(=O)O; NMeAib = CNC(C)(C)C(=O)O; Nle = CCCC[C@H](N)C(=O)O; Piperidide = C1CCN(*)CC1; Pra = C#CC[C@H](N)C(=O)O; Pyrrolidide = C1CCN(*)C1; Ac5c = NC1(C(=O)O)CCCC1; Aze = O=C(O)[C@@H]1CCN1; Sar = CNCC(=O)O
tested on: Human pancreatic cancer cell line AsPC-1 (G12D mutation Kras); test: AsPC-1 cell growth inhibition (AsPC-1 CGI); assay type: cell-based; settings: read-out: AsPC-1 cell growth inhibition, 50% growth inhibitory concentration (IC50 value); 96 hours, CellTiter-Glo, values classified in ranges
Method: Test compounds were serially dilated with dimethyl sulfoxide, and 200 nL was then dispensed to a U-bottom 96-well plate using Labcyte Echo. […] The cell suspension was dispensed to a. plate containing a test compound at 100 μL per well and incubated at 37° C. in a 5% carbon dioxide gas incubator. 96 hours later, 80 μL of CellTiter-Glo (Promega) was added to each well and fluorescence was measured.

`CC[C@H](C)[C@@H]1NC(=O)[C@H](CC(F)(F)F)N(C)C(=O)C[C@@H](C(=O)N2CCCC2)N(C)C(=O)[C@H](C2CCCCC2)N(C)C(=O)C2(CCCC2)NC(=O)[C@@H]2CC(F)(F)CN2C(=O)[C@H](CCc2ccc(C(F)(F)F)c(Cl)c2)NC(=O)CN(C)C(=O)[C@H](Cc2ccc(C)cc2)N(C)C(=O)CN(C)C(=O)CN(C)C1=O` [Compound 1245] ([NMeAbu(4,4,4-F3)]I[Sar][Sar][NMePhe(4-Me)][Sar][hPhe(3-Cl-4-CF3)][Pro(4,4-F2)][Ac5c][NMeChg][NMeD]-Pyrrolidide; lactam N-11) and `CC[C@H](C)[C@@H]1NC(=O)[C@H](CC(F)(F)F)N(C)C(=O)C[C@@H](C(=O)N2CCOCC2)N(C)C(=O)[C@H](C2CCCCC2)N(C)C(=O)C2(CCCC2)NC(=O)[C@@H]2CC(F)(F)CN2C(=O)[C@H](CCc2cc(F)c(C(F)(F)F)c(F)c2)NC(=O)CN(C)C(=O)[C@H](Cc2ccc(C(F)(F)F)cc2)N(C)C(=O)CN(C)C(=O)CN(C)C1=O` [Compound 1260] ([NMeAbu(4,4,4-F3)]I[Sar][Sar][NMePhe(4-CF3)][Sar][hPhe(3,5-F2-4-CF3)][Pro(4,4-F2)][Ac5c][NMeChg][NMeD]-Morpholide; lactam N-11) cannot be ordered by IC50: ≤ 0.02 µM for the first, ≤ 0.02 µM for the second.

`C#CC[C@@H]1NC(=O)[C@H](Cc2cccc(I)c2)NC(=O)CN(C)C(=O)[C@H](Cc2ccc(OC)cc2)N(C)C(=O)[C@@H]2CCN2C(=O)CN(C)C(=O)[C@H]([C@@H](C)CC)NC(=O)[C@H](CC(C)C)N(C)C(=O)C[C@@H](C(=O)N2CCCCC2)N(C)C(=O)[C@H](CC(C)C)NC(=O)C(C)(C)N(C)C1=O` [Compound 1246] ([NMeL]I[Sar][Aze][NMeY](Me)[Sar][Phe(3-I)][Pra][NMeAib]L[NMeD]-Piperidide; lactam N-11) and `C#CC[C@@H]1NC(=O)[C@H](Cc2cccc(I)c2)NC(=O)CN(C)C(=O)[C@H](Cc2ccc(C(F)(F)F)cc2)N(C)C(=O)[C@@H]2CCN2C(=O)[C@H](C)N(C)C(=O)[C@H]([C@@H](C)CC)NC(=O)[C@H](CC(C)C)N(C)C(=O)C[C@@H](C(=O)N2CCCCC2)N(C)C(=O)[C@H](CC(C)C)NC(=O)C(C)(C)N(C)C1=O` [Compound 1258] ([NMeL]I[NMeA][Aze][NMePhe(4-CF3)][Sar][Phe(3-I)][Pra][NMeAib]L[NMeD]-Piperidide; lactam N-11) cannot be ordered by IC50: > 0.5 µM for the first, > 0.5 µM for the second.

`CC[C@H](C)[C@@H]1NC(=O)[C@H](CC(C)C)N(C)C(=O)C[C@@H](C(=O)N2CCOC2)NC(=O)[C@H]([C@@H](C)CC)N(C)C(=O)C2(CCCC2)NC(=O)[C@@H]2CCCN2C(=O)[C@H](CCc2ccc(C(F)(F)F)c(Cl)c2)NC(=O)CN(C)C(=O)[C@H](CC2CCCCC2)N(C)C(=O)CN(C)C(=O)CN(C)C1=O` [Compound 1247] ([NMeL]I[Sar][Sar][NMeCha][Sar][hPhe(3-Cl-4-CF3)]P[Ac5c][NMeI]D-{Oxazolidin(3-yl)}; lactam N-11) and `CC[C@H](C)[C@@H]1NC(=O)[C@H](CC(C)C)N(C)C(=O)C[C@@H](C(=O)N2C3CCC2COC3)NC(=O)[C@H]([C@@H](C)CC)N(C)C(=O)C2(CCCC2)NC(=O)[C@@H]2CCCN2C(=O)[C@H](CCc2ccc(C(F)(F)F)c(Cl)c2)NC(=O)CN(C)C(=O)[C@H](CC2CCCCC2)N(C)C(=O)CN(C)C(=O)CN(C)C1=O` [Compound 1257] ([NMeL]I[Sar][Sar][NMeCha][Sar][hPhe(3-Cl-4-CF3)]P[Ac5c][NMeI]D-{3Oxa8azabicyclo(3.2.1)octane}; lactam N-11) cannot be ordered by IC50: > 0.5 µM for the first, > 0.5 µM for the second.

`CCCC[C@@H]1NC(=O)[C@H](Cc2cccc(I)c2F)NC(=O)CN(C)C(=O)[C@H](Cc2ccc(OC)cc2)N(C)C(=O)[C@@H]2CCN2C(=O)[C@H](C)N(C)C(=O)[C@H]([C@@H](C)CC)NC(=O)[C@H](CC)N(C)C(=O)C[C@@H](C(=O)N2CCCCC2)N(C)C(=O)[C@H](CC(C)C)NC(=O)C(C)(C)N(C)C1=O` [Compound 1249] ([NMeAbu]I[NMeA][Aze][NMeY](Me)[Sar][X109][Nle][NMeAib]L[NMeD]-Piperidide; lactam N-11) and `CCCC[C@@H]1NC(=O)[C@H](Cc2cccc(F)c2F)NC(=O)CN(C)C(=O)[C@H](Cc2ccc(OC)cc2)N(C)C(=O)[C@@H]2CCN2C(=O)[C@H](C)N(C)C(=O)[C@H]([C@@H](C)CC)NC(=O)[C@H](CC)N(C)C(=O)C[C@@H](C(=O)N2CCCCC2)N(C)C(=O)[C@H](CC(C)C)NC(=O)C(C)(C)N(C)C1=O` [Compound 1256] ([NMeAbu]I[NMeA][Aze][NMeY](Me)[Sar][X128][Nle][NMeAib]L[NMeD]-Piperidide; lactam N-11) cannot be ordered by IC50: > 0.5 µM for the first, > 0.5 µM for the second.

Compared with `CCO[C@@H]1C[C@H]2C(=O)NC3(CCCC3)C(=O)N(C)[C@@H]([C@@H](C)CC)C(=O)N(C)[C@H](C(=O)N3CCOCC3)CC(=O)N(C)[C@@H](CC(C)C)C(=O)N[C@@H]([C@@H](C)CC)C(=O)N(C)[C@@H](C)C(=O)N3CC[C@H]3C(=O)N(C)[C@@H](Cc3ccc(C(F)(F)F)cc3)C(=O)N(C)CC(=O)N[C@@H](CCc3cc(F)c(C(F)(F)F)c(F)c3)C(=O)N2C1` [Compound 1261] ([NMeL]I[NMeA][Aze][NMePhe(4-CF3)][Sar][hPhe(3,5-F2-4-CF3)][Hyp](Et)[Ac5c][NMeI][NMeD]-Morpholide; lactam N-11), `CCCC[C@@H]1NC(=O)[C@H](Cc2cc(F)ccc2F)NC(=O)CN(C)C(=O)[C@H](Cc2ccc(OC)cc2)N(C)C(=O)[C@@H]2CCN2C(=O)[C@H](C)N(C)C(=O)[C@H]([C@@H](C)CC)NC(=O)[C@H](CC)N(C)C(=O)C[C@@H](C(=O)N2CCCCC2)N(C)C(=O)[C@H](CC(C)C)NC(=O)C(C)(C)N(C)C1=O` [Compound 1268] ([NMeAbu]I[NMeA][Aze][NMeY](Me)[Sar][X135][Nle][NMeAib]L[NMeD]-Piperidide; lactam N-11) is higher in IC50: ≤ 0.02 µM for the first, > 0.5 µM for the second. The first is the more potent here.

Going from `CC[C@H](C)[C@@H]1NC(=O)[C@H](CC(C)C)N(C)C(=O)C[C@@H](C(=O)N2CCS(=O)(=O)CC2)N(C)C(=O)[C@H](C2CCCCC2)N(C)C(=O)C2(CCCC2)NC(=O)[C@@H]2CCCN2C(=O)[C@H](CCc2ccc(C(F)(F)F)c(Cl)c2)NC(=O)CN(C)C(=O)[C@H](CC2CCCCC2)N(C)C(=O)CN(C)C(=O)CN(C)C1=O` [Compound 1263] ([NMeL]I[Sar][Sar][NMeCha][Sar][hPhe(3-Cl-4-CF3)]P[Ac5c][NMeChg][NMeD]-{Thiomorpholino(1,1-dioxo)}; lactam N-11) to `CC[C@H](C)[C@@H]1NC(=O)[C@H](CC(C)C)N(C)C(=O)C[C@@H](C(=O)N2CCCC2)N(C)C(=O)[C@H](C2CCCC2)N(C)C(=O)C2(CCCC2)NC(=O)[C@@H]2CC(F)(F)CN2C(=O)[C@H](CCc2ccc(C(F)(F)F)c(Cl)c2)NC(=O)CN(C)C(=O)[C@H](CC2CCCCC2)N(C)C(=O)CN(C)C(=O)CN(C)C1=O` [Compound 1270] ([NMeL]I[Sar][Sar][NMeCha][Sar][hPhe(3-Cl-4-CF3)][Pro(4,4-F2)][Ac5c][NMeGly(cPent)][NMeD]-Pyrrolidide; lactam N-11), the IC50 falls from > 0.5 µM to ≤ 0.02 µM.

For `CC[C@H](C)[C@@H]1NC(=O)[C@H](CC(C)C)N(C)C(=O)C[C@@H](C(=O)N2CCCCC2)NC(=O)[C@H](C2CCCCC2)N(C)C(=O)C2(CCCC2)NC(=O)[C@@H]2CCCN2C(=O)[C@H](CCc2ccc(C(F)(F)F)c(Cl)c2)NC(=O)CN(C)C(=O)[C@H](CC2CCCCC2)N(C)C(=O)CN(C)C(=O)CN(C)C1=O` [Compound 1274] ([NMeL]I[Sar][Sar][NMeCha][Sar][hPhe(3-Cl-4-CF3)]P[Ac5c][NMeChg]D-Piperidide; lactam N-11), the IC50 was > 0.5 µM.

— patent US20240148821A1, “PHARMACEUTICAL USE OF CYCLIC PEPTIDE COMPOUND” (CHUGAI SEIYAKU KABUSHIKI KAISHA, priority 2021, published 2024)
